Values joined by “and” are separate entries in the source; they are usually repeats but may differ in a detail not shown here. Identical values can stand only once. “Also recorded” adds a separate entry of the source. Non-standard residues stand in square brackets, D forms with d. Residues, ends and D or L forms follow the SMILES beside them. ξ: configuration not given here. *: point of attachment. Benzoyl(2,6-F2) = O=C(c1c(F)cccc1F)*; Benzoyl(4-F) = O=C(c1ccc(F)cc1)*; ξR = N=C(N)NCCCC(N)C(=O)O; Nle = CCCC[C@H](N)C(=O)O; Bz = O=C(c1ccccc1)*; CF3 = FC(F)(F)*
Experiments:
DENV2 NS2B:NS3pro [1] = biological target: T1, DENV2 NS2B:NS3pro (Dengue virus type 2, UniProt P29990); test: 1H-15N TROSY chemical shifts/CSP, oxyanion hole and H51 of NS2B:NS3pro complexes; type: binding, serotype II Dengue virus (DENV2)
T1 construct: DENV2 NS3pro (1–185; amino acids 1476–1660 of the polyprotein); NS2B (containing amino acids 1394–1440 of the Dengue 2 polyprotein); His tag; made in house; host or cells: Escherichia coli BL21Star (DE3)
Method: The NS2B:NS3pro complex was concentrated in disposable centrifugal concentrators (e.g. Amicon Ultra centrifugal filter units) with a molecular weight cut-off of 10 kDa. The complex was stable during concentration and no leakage of NS2B occurred. Buffer was exchanged using gravity flow desalting columns (GE Healthcare). The NMR buffer contained 20 mM deuterated MES, 100 mM NaCl, 5 mM CaCl2, 0.02% NaN3, at pH 6.5. The buffer-exchanged protein was concentrated to at least 0.3 mM. To obtain spectra in D2O buffer protein complex with inhibitor was lyophilized and dissolved adding only D2O water.
(§1) NMR experiments were acquired on Bruker Avance III spectrometers operating at 14.1 and 16.4 T at a temperature of 298 K. 2D ^1H-^15N TROSY -transverse relaxation optimized spectroscopy (TROSY) was used. ^19F experiments were acquired on a Bruker Avance III 16.4 T equipped with a QCIF CryoProbe, and internally referenced to the trifluoromethyl acetate counter ion (− 76.55 ppm). For solvent isotope shift measurements the buffer was exchanged from 90% H2O to 90% D2O using centrifugation filters by following dilution of the sample till starting concentration. The consistency of the procedure has been tested through comparison of the ^1H-^15N spectra before and after buffer exchange back to starting condition. There was no major structural perturbations resulted from exchange into deuterated buffer conditions. Protein detected experiments with ligand bound used a chemical shift perturbation (CSP) analysis was performed manually in CcpNmr Analysis 2.2.2 [60]. CSP was defined as the distance between two cross peaks in Hz, obtained as the square root of the sum of quadratic using DANGLE [61].
Backbone resonance assignment of the NS2B:NS3pro with tetra peptide boronic acid (I) was performed as described previously by us with depositing to the BioMagResBank with accession code 26996 [10, 62], and compared with published earlier for the same inhibitor complex but with the linked construct Dengue I NS2B:NS3pro (BioMagResBank with accession code 19305). Backbone resonance assignment have been done in the same manner for the complex NS2B:NS3pro with the tetra peptide tfk ligand (II) as well and will be published elsewhere. Partial assignments of the ^1H and ^15N resonances presented in this publication of the apo form NS2B:NS3pro and its mutants in complex with inhibitors observed to the uncrowded area of the ^1H-^15N spectra are made by the extrapolation of corresponding cross peaks to the closest one known amino acids using CCPN program tool. […]

NS2B:NS3pro (S135A) = test: 19F and 1H-15N TROSY NMR binding to S135A mutant; set-up: species or system serotype II Dengue virus (DENV2); details: 1H-15N TROSY and 19F NMR
Excerpt: (§2) Reagents were from Sigma (St. Louis, MO, USA) unless otherwise stated. DENV2 NS3pro (1–185; amino acids 1476–1660 of the polyprotein) and NS2B (containing amino acids 1394–1440 of the Dengue 2 polyprotein) constructs were generated as described. H51N and S135A mutations of active site residues were introduced using the QuikChange Lightning kit (Agilent); a double H51N/S135A mutant was generated sequentially. All sequences were confirmed by Sanger sequencing. NS2B and NS3pro were expressed separately in Escherichia coli expression strain BL21Star (DE3) (Life Technologies) as described. Proteins were expressed in Terrific Broth medium (MP Biomedicals) for unlabelled protein or in different isotopic labelling combinations in ^1/2H, ^15N, ^12/13C-labelled M9 medium for labelled protein [54]. […]
(§3) NMR experiments were acquired on Bruker Avance III spectrometers operating at 14.1 and 16.4 T at a temperature of 298 K. 2D ^1H-^15N TROSY -transverse relaxation optimized spectroscopy (TROSY) was used. ^19F experiments were acquired on a Bruker Avance III 16.4 T equipped with a QCIF CryoProbe, and internally referenced to the trifluoromethyl acetate counter ion (− 76.55 ppm). […] Protein detected experiments with ligand bound used a chemical shift perturbation (CSP) analysis was performed manually in CcpNmr Analysis 2.2.2 [60]. […]

DENV2 NS2B:NS3pro [2] = biological target: T1, DENV2 NS2B:NS3pro; test: 19F NMR monitoring of inhibitor binding to wild-type NS2B:NS3pro; set-up: species or system serotype II Dengue virus (DENV2); details: 298 K
Excerpt: The subside part of peptide types of inhibitors either improves or prevents correct binding with the enzyme in the most favourable way. One way to probe stereo-selectivity in enzymes is to study an inhibitor with the wrong stereochemistry around the carbon, Cα, of the P1 (Arg) (for abbreviation see Table 1). The key question is: could both isomers bind to NS2B:NS3pro complex? If yes, is there any difference in affinity between them. To challenge these questions two separated diastereomers of Ph-Bz-Lys-Lys-Arg-CF3-ketone (III) (Table 1) with low affinity were used to observe the binding. The isolated diastereomers were kept in solution with and without the NS2B/NS3 complex for two months with measuring at several points. For the first separated isomer (IIIa), only one ^19F resonance is observed at − 82.83 ppm in the unbound state (Fig. 1a). […]
as §3

DENV2 NS2B:NS3pro [3] = biological target: T1, DENV2 NS2B:NS3pro; test: 19F NMR solvent isotope shift (H2O vs D2O), water accessibility of NS2B:NS3pro complex; set-up: species or system serotype II Dengue virus (DENV2); details: inhibitor bound to DENV2 NS2B:NS3pro
Method: The accessibility of water in the binding site of the complex with bound inhibitor was tested by studying the ^19F spectra of the complexes NS2B:NS3pro (II) in two different solvents: H2O and D2O (Fig. S2). […] This CSP was scaled versus the signals of the same group of the unbound ligand, ca 48 Hz (Fig. S2c). The conclusion is that ^19F nuclei of the benzene ring of the bound inhibitor are partly exposed to the solvent even in the bound state.
The NS2B:NS3pro complex was concentrated in disposable centrifugal concentrators (e.g. Amicon Ultra centrifugal filter units) with a molecular weight cut-off of 10 kDa. The complex was stable during concentration and no leakage of NS2B occurred. Buffer was exchanged using gravity flow desalting columns (GE Healthcare). The NMR buffer contained 20 mM deuterated MES, 100 mM NaCl, 5 mM CaCl2, 0.02% NaN3, at pH 6.5. […]
as §3

NS2B:NS3pro (H51N) = test: 19F and 1H-15N TROSY NMR binding to H51N mutant; set-up: species or system serotype II Dengue virus (DENV2); details: 1H-15N TROSY and 19F NMR, same protein:inhibitor ratio as wild type
Excerpt: as §2, §3

DENV2 NS2B:NS3pro [4] = biological target: T1, DENV2 NS2B:NS3pro; test: Low field 1D 1H NMR of NS2B:NS3pro complexes (LBHB, H51-D75); type: binding, serotype II Dengue virus (DENV2)
Method: The NS2B:NS3pro complex was concentrated in disposable centrifugal concentrators (e.g. Amicon Ultra centrifugal filter units) with a molecular weight cut-off of 10 kDa. The complex was stable during concentration and no leakage of NS2B occurred. Buffer was exchanged using gravity flow desalting columns (GE Healthcare). […] The buffer-exchanged protein was concentrated to at least 0.3 mM. To obtain spectra in D2O buffer protein complex with inhibitor was lyophilized and dissolved adding only D2O water.
as §1

DENV2 NS2B:NS3pro [5] = biological target: T1, DENV2 NS2B:NS3pro; details: earlier NMR study; cited from earlier work
Excerpt: The unusual large low-filed shift of N^δ1H (19.93 ppm) of H51 combined with a N-H splitting of only 52 Hz clearly indicated the ...

DENV2 NS2B:NS3pro [6] = biological target: T1, DENV2 NS2B:NS3pro; test: Biochemical protease activity assay, fluorogenic AMC substrate; set-up: species or system serotype II Dengue virus (DENV2); details: 50 mM HEPES pH 7.4, 150 mM NaCl, 10% ethylene glycol, 0.05% BSA, 0.0016% Brij-58; 80 nM enzyme; 20 μM Bz-nle-Lys-Arg-Arg-AMC; fluorescence 390/460 nm every 30 s for 30 min; three parameter IC50 fit
Method: Activity assays were carried out on a 96-well plate (white Cliniplate, Thermo Fisher Scientific Oy, Vantaa, Finland) in 50 mM HEPES, pH 7.4, 150 mM NaCl, 10% ethylene glycol, 0.05% BSA, 0.0016% Brij-58 with 80 nM enzyme using 20 μM Bz-nle-Lys-Arg-Arg-AMC (Bachem, Bubendorf, Switzerland) as substrate. Reagents were from Sigma (St. Louis, MO, USA) unless otherwise stated.
5 μl of 200 μM substrate in buffer and 2.5 μl of compound in DMSO or DMSO control were added to the plate. 42.5 μl of […] enzyme in buffer was added to start the reaction. Fluorescence was read every 30 s for 30 min at 390 nm excitation and 460 nm emission in a Fluorskan Ascent plate reader (Thermo Fisher Scientific Oy, Vantaa, Finland). Rates were fitted in the Ascent software and exported as Excel files. The rates were imported into GraphPad Prism (GraphPad Software Inc., La Jolla, CA, USA) and fitted to the standard three parameter IC50 equation.

CCCC[C@H](NC(=O)c1ccccc1)C(=O)N[C@@H](CCCCN)C(=O)N[C@@H](CCCNC(=N)N)C(=O)N[C@@H](CCCNC(=N)N)B(O)O [I, ((3S,6S,9S,12R)-17-amino-6-(4-aminobutyl)-3-butyl-9-(3-guanidinopropyl)-17-imino-1,4,7,10-tetraoxo-1-phenyl-2,5,8,11,16-pentaazaheptadecan-12-yl)boronic acid]
H51-HN 1H chemical shift in complex (DENV2 NS2B:NS3pro [1]; apo 10.56 and 10.18 ppm): 10.03 ppm | H51-HN 15N chemical shift in complex (DENV2 NS2B:NS3pro [1]; apo 114.44 and 114.37 ppm): 113.50 ppm | Amide CSP of the oxyanion hole (DENV2 NS2B:NS3pro [1]; complex vs apo form): ~0.3 ppm | Interaction with oxyanion hole (DENV2 NS2B:NS3pro [1]; complex with NS2B:NS3pro): we did not observe interaction of G133 in the oxyanion hole; also recorded: no interaction with the oxyanion hole | Binding to S135A mutant (NS2B:NS3pro (S135A)): do not interact with the S135A mutant; also recorded: no binding was observed; also recorded: complete absence of any binding | Binding to NS2B:NS3pro / affinity in words (NMR) (DENV2 NS2B:NS3pro [2]): the former has higher affinity than the latter | Bulk water access to active site (DENV2 NS2B:NS3pro [3]): bulk water is excluded from the active site | Affinity / complex formation with H51N mutant (NS2B:NS3pro (H51N)): saturation of the protease and inhibitor complex could not be reached | Decrease of Nδ1H one-bond coupling vs commonly reported serine proteases (DENV2 NS2B:NS3pro [4]; commonly 87-95 Hz): about 38 Hz | One bond JNH of Nδ1H H51, 19.93 ppm signal (DENV2 NS2B:NS3pro [4]; first tautomer): 52+/− 2 Hz and 52 Hz | One bond JNH of Nε2H H51 (DENV2 NS2B:NS3pro [4]; first tautomer): 90+/− 2 Hz and 90 Hz | Nδ1H of H51, second tautomer, 1H chemical shift (DENV2 NS2B:NS3pro [4]; most persistent signal, pH 8.5 Tris): 19.77 ppm and 19.772 ppm | pH dependence of low field 1H chemical shift (DENV2 NS2B:NS3pro [4]; pH 5.5 to 8.5): None of the signals in this region shift between pH 5.5 and 8.5 | Nδ1H of H51, first tautomer, 1H chemical shift (DENV2 NS2B:NS3pro [4]; pH 6.0 MES, not always observed): 19.93 ppm and 19.933 ppm | One bond JNH of Nδ1H H51, 19.77 ppm signal (DENV2 NS2B:NS3pro [4]; second tautomer): 52+/− 2 Hz and 52 Hz | N-H splitting of Nδ1H of H51 (DENV2 NS2B:NS3pro [5]): 52 Hz | NδH shift of H51 in complex (DENV2 NS2B:NS3pro [5]): 19.93 ppm

CCCC[C@H](NC(=O)c1c(F)cccc1F)C(=O)N[C@@H](CCCCN)C(=O)N[C@@H](CCCNC(=N)N)C(=O)NC(CCCNC(=N)N)C(=O)C(F)(F)F (stereo partly drawn) [II, N-((9S,12S,15S)-1-amino-12-(4-aminobutyl)-9-(3-guanidinopropyl)-1-imino-8,11,14-trioxo-6-(2,2,2-trifluoroacetyl)-2,7,10,13-tetraazanonadecan-15-yl)-2,6-difluorobenzamide] ({Benzoyl(2,6-F2)}-[Nle]KR[ξR]-CF3)
IC50 (DENV2 NS2B:NS3pro [6]): 19 µM

CCCC[C@H](NC(=O)c1ccccc1)C(=O)N[C@@H](CCCCN)C(=O)N[C@@H](CCCNC(=N)N)C(=O)NC(CCCNC(=N)N)C(=O)C(F)(F)F (stereo partly drawn) [IV, N-((9S,12S,15S)-1-amino-12-(4-aminobutyl)-9-(3-guanidinopropyl)-1-imino-8,11,14-trioxo-6-(2,2,2-trifluoroacetyl)-2,7,10,13-tetraazanonadecan-15-yl)benzamide] (Bz-[Nle]KR[ξR]-CF3)
IC50 (DENV2 NS2B:NS3pro [6]): 11 µM

CCCC[C@H](NC(=O)c1ccc(F)cc1)C(=O)N[C@@H](CCCCN)C(=O)N[C@@H](CCCNC(=N)N)C(=O)NC(CCCNC(=N)N)C(=O)C(F)(F)F (stereo partly drawn) [V, N-((9S,12S,15S)-1-amino-12-(4-aminobutyl)-9-(3-guanidinopropyl)-1-imino-8,11,14-trioxo-6-(2,2,2-trifluoroacetyl)-2,7,10,13-tetraazanonadecan-15-yl)-4-fluorobenzamide] ({Benzoyl(4-F)}-[Nle]KR[ξR]-CF3)
IC50 (DENV2 NS2B:NS3pro [6]): 24 µM

Bz-Nle-Lys-Arg-Arg-CF3-ketone [IVa, isomer IVa of (IV), free 19F at − 82.82 ppm]
Binding to NS2B:NS3pro / affinity in words (NMR) (DENV2 NS2B:NS3pro [2]): the signal of only one isomer (IVa) re-appeared

— article PMC7249419, “Probing contacts of inhibitor locked in transition states in the catalytic triad of DENV2 type serine protease and its mutants by 1H, 19F and 15 N NMR spectroscopy” (BMC Molecular and Cell Biology, 2020)
